Data: PubChem BioAssay AID2060891 (Molecular Pharmacology Branch, DTP, NCI, 2025)

Tested on: K98450-129-R-PDC complex spheroid growth, percent test/control
Assay: Anticancer human tumor K98450-129-R-PDC patient-derived colon adenocarcinoma cell line growth inhibition [RAS]
Settings: for IC50: curve of first compound; for viability, T/C: stronger effect = lower value
Summary of the method: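 Agents were tested in combination matrices in half-log decrements from a top concentration at or near clinical Cmax (10 microM if undetermined). Targets were multi-cell spheroids of tumour lines plus HUVEC and MSC stromal cells.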
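Also: spheroids exposed to agents for seven days before the viability readout.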
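For viability, T/C in this document: luminescence used as a proxy for viable cell amount.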

- IC50 (second compound 0.000949 µM): 179 nM
- IC50 (second compound 0.003 µM): 112 nM
- IC50 (second compound 0.00949 µM): 3.58 nM
- IC50 (second compound 0.03 µM): < 3.16 nM
- IC50 (second compound 0.0949 µM): < 3.16 nM
- IC50 (second compound 0.3 µM): < 3.16 nM
Compound: C=CC(=O)N1CCN(c2nc(OCC3CCCN3C)nc3c(F)c(-c4nc(N)cc(C)c4C(F)(F)F)c(Cl)cc23)C(C)C1 (configuration not stated) + CCn1c(-c2cccnc2C(C)OC)c2c3cc(ccc31)N1CCOC(CC(NC(=O)C(C(C)C)N(C)C(=O)C3(F)CCN(C(=O)C#CC(C)(C)N(C)C)CC3)C(=O)N3CCCC(N3)C(=O)OCC(C)(C)C2)C1
- viability, T/C (second compound 0.000949 µM, first compound 0.00316 µM): 81.6%
- viability, T/C (second compound 0.000949 µM, first compound 0.01 µM): 69.9%
- viability, T/C (second compound 0.000949 µM, first compound 0.0316 µM): 63.1%
- viability, T/C (second compound 0.000949 µM, first compound 0.1 µM): 55.4%
- viability, T/C (second compound 0.000949 µM, first compound 0.316 µM): 46.6%
- viability, T/C (second compound 0.000949 µM, first compound 1 µM): 36%
- viability, T/C (second compound 0.003 µM, first compound 0.00316 µM): 69.4%
- viability, T/C (second compound 0.003 µM, first compound 0.01 µM): 54%
- viability, T/C (second compound 0.003 µM, first compound 0.0316 µM): 52.8%
- viability, T/C (second compound 0.003 µM, first compound 0.1 µM): 56.2%
- viability, T/C (second compound 0.003 µM, first compound 0.316 µM): 45.9%
- viability, T/C (second compound 0.003 µM, first compound 1 µM): 35.2%
- viability, T/C (second compound 0.00949 µM, first compound 0.00316 µM): 52.8%
- viability, T/C (second compound 0.00949 µM, first compound 0.01 µM): 46.8%
- viability, T/C (second compound 0.00949 µM, first compound 0.0316 µM): 43.8%
- viability, T/C (second compound 0.00949 µM, first compound 0.1 µM): 44.9%
- viability, T/C (second compound 0.00949 µM, first compound 0.316 µM): 39.9%
- viability, T/C (second compound 0.00949 µM, first compound 1 µM): 41.9%
- viability, T/C (second compound 0.03 µM, first compound 0.00316 µM): 39.4%
- viability, T/C (second compound 0.03 µM, first compound 0.01 µM): 37.1%
- viability, T/C (second compound 0.03 µM, first compound 0.0316 µM): 40.4%
- viability, T/C (second compound 0.03 µM, first compound 0.1 µM): 40.7%
- viability, T/C (second compound 0.03 µM, first compound 0.316 µM): 43.2%
- viability, T/C (second compound 0.03 µM, first compound 1 µM): 39.9%
- viability, T/C (second compound 0.0949 µM, first compound 0.00316 µM): 36.6%
- viability, T/C (second compound 0.0949 µM, first compound 0.01 µM): 34.3%
- viability, T/C (second compound 0.0949 µM, first compound 0.0316 µM): 42.1%
- viability, T/C (second compound 0.0949 µM, first compound 0.1 µM): 37.2%
- viability, T/C (second compound 0.0949 µM, first compound 0.316 µM): 43.5%
- viability, T/C (second compound 0.0949 µM, first compound 1 µM): 33.7%
- viability, T/C (second compound 0.3 µM, first compound 0.00316 µM): 29.8%
- viability, T/C (second compound 0.3 µM, first compound 0.01 µM): 35.3%
- viability, T/C (second compound 0.3 µM, first compound 0.0316 µM): 42.9%
- viability, T/C (second compound 0.3 µM, first compound 0.1 µM): 29%
- viability, T/C (second compound 0.3 µM, first compound 0.316 µM): 36.1%
- viability, T/C (second compound 0.3 µM, first compound 1 µM): 38%
